The test system of test [1] is H9c2. The test is described as follows: cells. The test is classed as functional, cell-based. The following applies: Rattus norvegicus, H9c2, Myocardium.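 Further: confirmatory concentration-response retest of ultra-high-throughput screening hits for modulation of myocardial damage; cell death induced by hydrogen peroxide oxidative stress; compound pretreatment for 60 min then peroxide exposure for 2 h; potency is for protecting the cells against peroxide damage rather than for killing them.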
Test [2] in a line: NIH-3T3 fibroblast cytotoxicity, dose response, cytotoxicity control, cell-based, fluorescence, Alamar Blue, secondary assay (AID 2327).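 Further: NIH-3T3 mouse fibroblasts cultured with fluconazole at 8 µg/mL.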 The format is functional. (Resazurin is reduced to fluorescent resorufin, in cell work by metabolically active cells.)
Test [3] can be described thus: fluconazole-exposed Candida albicans growth modulators – fluorescence, retest, confirmation (AID 2467). The test is classed as functional, cell-based.
In test [4] the test system is INS1. As to the kind of experiment: INS-1E survival protection against cytokine death – cell-based, luminescence, retest, dose response (AID 449756).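 Further: cell death triggered by IL-1 beta plus TNF-alpha plus IFN-gamma mixture; protective hits raise ATP signal compared with cytokine alone wells.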 The test is classed as functional. The following applies: Rattus norvegicus.
The nature of test [5]: HIV-1 AD8 envelope cell-cell fusion blockers – cherry-pick, dose response (AID 652062).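 Further: luciferase signal from cell-cell fusion driven by HIV-1 clade B AD8 Env; potency is for inhibitors of fusion seen as a drop in luminescence.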 The format is functional, cell-based.
The target in test [6] is T1, Cytochrome P450 1A2 (Homo sapiens, UniProt P05177).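 Further: PubChem cytochrome P450 panel assay, CYP1A2 panel member.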
T1 sequence (P05177 whole entry): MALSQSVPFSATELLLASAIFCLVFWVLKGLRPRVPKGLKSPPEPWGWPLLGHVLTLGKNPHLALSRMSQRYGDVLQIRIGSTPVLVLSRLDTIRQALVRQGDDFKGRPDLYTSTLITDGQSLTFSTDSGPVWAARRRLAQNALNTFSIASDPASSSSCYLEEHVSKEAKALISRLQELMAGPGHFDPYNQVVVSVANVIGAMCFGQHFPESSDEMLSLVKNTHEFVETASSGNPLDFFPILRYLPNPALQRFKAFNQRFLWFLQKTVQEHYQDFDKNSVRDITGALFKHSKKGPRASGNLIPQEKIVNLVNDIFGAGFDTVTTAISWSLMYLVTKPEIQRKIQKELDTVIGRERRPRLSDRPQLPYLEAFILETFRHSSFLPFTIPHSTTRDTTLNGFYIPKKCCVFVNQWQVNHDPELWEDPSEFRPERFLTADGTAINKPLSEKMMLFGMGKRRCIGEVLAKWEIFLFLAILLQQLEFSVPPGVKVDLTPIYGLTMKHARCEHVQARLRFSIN

Test [7] deals with Cytochrome P450 3A4 (Homo sapiens, UniProt P08684).
Cytochrome P450 3A4, sequence (P08684 whole entry): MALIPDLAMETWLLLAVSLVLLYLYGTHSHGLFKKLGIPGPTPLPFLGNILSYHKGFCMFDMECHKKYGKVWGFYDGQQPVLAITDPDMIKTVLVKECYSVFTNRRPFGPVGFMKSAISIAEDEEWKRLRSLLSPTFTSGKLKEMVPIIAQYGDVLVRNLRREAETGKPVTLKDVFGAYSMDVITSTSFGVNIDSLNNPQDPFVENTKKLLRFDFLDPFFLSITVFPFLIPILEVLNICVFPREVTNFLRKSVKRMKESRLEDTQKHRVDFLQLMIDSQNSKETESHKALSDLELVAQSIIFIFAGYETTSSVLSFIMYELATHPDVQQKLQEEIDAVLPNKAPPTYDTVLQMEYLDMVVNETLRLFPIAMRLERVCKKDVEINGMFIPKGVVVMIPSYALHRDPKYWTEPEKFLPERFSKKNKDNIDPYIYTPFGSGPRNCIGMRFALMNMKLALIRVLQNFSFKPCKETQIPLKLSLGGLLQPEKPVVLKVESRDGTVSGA
Test [8] has as its target Cytochrome P450 2D6 (Homo sapiens, UniProt P10635).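 Further: CYP2D6 member of a cytochrome P450 panel assay.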
Test [9] concerns the target Cytochrome P450 2C9 (Homo sapiens, UniProt P11712).
The nature of test [10]: viability of uninfected HEp-2 cells – cell-based, HTS, cytotoxicity control for RSV inhibitor project, dose response (AID 2410). The following applies: human respiratory syncytial virus. The format is functional.

Molecules are shown by their SMILES. The source made the active and inactive calls.

These results are taken from ChEMBL document CHEMBL1201862, “PubChem BioAssay data set” (2004).

Cytochrome P450 2D6, sequence (P10635 whole entry): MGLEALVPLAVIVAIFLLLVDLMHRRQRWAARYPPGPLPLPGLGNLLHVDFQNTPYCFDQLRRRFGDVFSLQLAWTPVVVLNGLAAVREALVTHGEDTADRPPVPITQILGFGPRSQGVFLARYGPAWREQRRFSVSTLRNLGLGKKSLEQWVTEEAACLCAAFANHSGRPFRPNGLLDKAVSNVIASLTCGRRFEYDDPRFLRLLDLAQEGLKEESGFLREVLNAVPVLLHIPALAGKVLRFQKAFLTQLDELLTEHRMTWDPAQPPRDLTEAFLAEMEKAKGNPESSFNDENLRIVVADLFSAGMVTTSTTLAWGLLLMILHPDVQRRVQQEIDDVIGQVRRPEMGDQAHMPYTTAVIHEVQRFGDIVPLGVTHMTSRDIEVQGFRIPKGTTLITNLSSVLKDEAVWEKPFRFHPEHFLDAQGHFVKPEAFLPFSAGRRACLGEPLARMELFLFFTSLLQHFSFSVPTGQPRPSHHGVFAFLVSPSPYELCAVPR
Cytochrome P450 2C9, sequence (P11712 whole entry): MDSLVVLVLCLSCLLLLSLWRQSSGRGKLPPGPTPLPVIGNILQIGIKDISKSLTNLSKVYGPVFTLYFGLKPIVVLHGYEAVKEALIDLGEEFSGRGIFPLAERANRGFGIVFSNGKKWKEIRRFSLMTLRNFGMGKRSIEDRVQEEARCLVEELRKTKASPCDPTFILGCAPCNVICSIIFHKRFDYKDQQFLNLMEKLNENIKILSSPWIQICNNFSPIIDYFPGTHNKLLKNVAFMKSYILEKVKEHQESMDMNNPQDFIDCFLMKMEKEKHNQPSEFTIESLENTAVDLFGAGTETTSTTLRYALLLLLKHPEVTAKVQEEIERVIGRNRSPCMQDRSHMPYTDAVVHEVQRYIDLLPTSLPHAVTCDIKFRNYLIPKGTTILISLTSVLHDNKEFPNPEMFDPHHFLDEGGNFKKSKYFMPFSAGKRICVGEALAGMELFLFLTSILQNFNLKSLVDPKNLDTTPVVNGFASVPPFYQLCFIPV

By IC50 is commonly meant the concentration at which inhibition is half-maximal. Turning to `COc1ccc(NC(=O)N(C)[C@H]2C[C@H]3c4[nH]c5ccc(-c6ccc7c(c6)OCO7)cc5c4CCN3C[C@H]2[C@H](C)O)cc1`, the IC50 in [1] was > 79 µM (inactive).
What is called EC50 is the midpoint of the concentration-response curve. As usually defined, the AC50 is the midpoint of the concentration-response curve, whichever way the signal moves. Consider `O=C(c1cc(COc2cccc(C(F)(F)F)c2)on1)N1CCC(c2ccncc2)CC1`, for which the EC50 in [2] is > 150 µM (inactive); in [3] it was > 38 µM (not active). Further, the concentration at half-maximal activity (AC50) in test [4] is 5.33 µM (active); in [5], 6.22 µM (active).
As to `COC(=O)/C(=C\c1ccc([N+](=O)[O-])o1)NC(=O)c1ccccc1`, the EC50 is > 160 µM (inactive) in test [2] and 0.53 µM (active) in [3].
On to `COc1ccc(C2C(C(=O)N3CCOCC3)CCC(=O)N2c2ccc(OC)cc2)cc1` (centres undefined), for which the values for the AC50 in [6] and in [7] were 0.0631 µM (inconclusive) and 17.8 µM (inconclusive), respectively.
On the same counts, the results for `CC1=CC(=O)N(c2cccc(C(F)(F)F)c2)C1c1ccc(Cl)cc1` (centres undefined) are 14.1 µM (inconclusive) and 10 µM (inconclusive).
For the compound `COc1ccccc1OCC(=O)Nc1cccc(-c2nnc(-c3ccco3)o2)c1`, the IC50 in test [1] is > 79 µM (inactive).
Take `CC(=O)Nc1cccc(-c2cc(NC=O)c3ncc(-c4ccc(C(C)=O)cc4)n3c2)c1`: the IC50 in test [1] was 11.2 µM (active).
Take `Cc1ccc(-c2csc(NC(=O)Cn3[nH]c(=O)c4ccccc4c3=O)n2)cc1`: the IC50 in [1] is > 79 µM (inactive).
As for `O=S(=O)(Nc1nc2ccccc2s1)c1ccc(Br)s1`, the figures for the EC50 in test [2] and in test [3] were > 150 µM (inactive) and 1.94 µM (active), respectively.
In the case of `Cc1[nH]c2ccccc2c1/C=C/c1cc[n+](C)cc1`, the concentration giving a half-maximal response (EC50) is 120 µM (inconclusive) in [2] and > 38 µM (not active) in test [3]. In addition, the AC50 in test [8] is 17.8 µM (inconclusive).
In the case of `CCCCCOC(=O)CSc1nnc(-c2ccccc2)c(O)n1`, the AC50 in test [7] is 22.4 µM (inconclusive).
With `Cc1nn2c(-c3cccc(NC(=O)c4ccco4)c3)nnc2c2ccccc12`, the IC50 in test [1] is > 79 µM (inactive).
For the compound `Cn1cccc1C(=O)N1CCC2(CCCN(C(=O)Nc3cccc(F)c3)C2)CC1`, in test [7], the AC50 was 10 µM (inconclusive).
With `CCn1ncc(C2=NOC(C(=O)Nc3ccc(C)cc3)C2)c1C` (centres undefined), in [5], the AC50 is 32.8 µM (active).
As to `O=C1c2ccccc2NC(c2ccc3c(c2)OCO3)N1O` (centres undefined), the AC50 in test [8] is 14.1 µM (inconclusive); in test [7], 22.4 µM (inconclusive); in [9] it was 14.1 µM (inconclusive).
Regarding `COC(=O)C1(CC(C)C)C=C2C(=C(c3ccccc3)C(=O)C2C)CN1` (centres undefined), the AC50 in test [6] was 15.8 µM (inconclusive); in [7], 25.1 µM (inconclusive).
With `O=C(NC12CC3CC(CC(C3)C1)C2)N1CCN(c2nc(-c3ccccc3)cs2)CC1`, the AC50 is 6.31 µM (inconclusive) in test [6] and 11.2 µM (inconclusive) in test [7].
The CC50 is the concentration that lowers cell viability or growth by half. On to `COc1ccc(Br)cc1C(=O)Nc1cccc(NC(=O)c2ccco2)c1`, for which the 50% cytotoxic concentration (CC50) in [10] is 29.1 µM (active). Further, in test [1], the IC50 is > 79 µM (inactive).
For `COc1ccc(CCNC(=O)c2c(O)c3ccccc3n(C)c2=O)cc1`, the half-maximal effective concentration (EC50) in [2] is 72.2 µM (active); in test [3], > 38 µM (not active).
Turning to `COc1ccc(CNc2nc(-c3ccc(N(C)C)cc3)nc3ccccc23)c(OC)c1`, the concentration at half-maximal activity (AC50) in [8] was 25.1 µM (inconclusive); in test [7], 5.01 µM (inconclusive).
`CCOC(=O)c1cnc(Nc2nc3ccccc3o2)nc1CSc1nnc(C)s1`: the IC50 in [1] is 13.4 µM (active).
As to `CN(C)Cc1ccccc1-c1cncnc1NCc1cccs1`, the AC50 in [7] was 1.26 µM (inconclusive).
In the case of `COC(=O)Sc1nc(N2CCOCC2)c2c(c1C#N)CC(C)(C)OC2`, the IC50 in test [1] is 38.6 µM (inactive).
